Measurements published in patent US12421228B2 (Mirati Therapeutics, Inc., priority 2019, dated 2025).

Tests used:
[1] = system: PRC2-mediated histone H3 methylation in Pfeiffer cells (EZH2 A677G); test: Tri-Methyl Histone H3 (Lys 27) sandwich ELISA in Pfeiffer cells; assay type: cell-based; conditions: Homo sapiens, 96 hours incubation, H3K27me3 ELISA, read-out: IC50 (nM), Inhibition of EZH2-mediated Histone H3 Trimethylation
Description: The Pfeiffer cell line was established from a […] from a patient having metastatic diffuse large B-cell lymphoma (DLBCL). This cell line expresses a mutant form of the EZH2 enzyme (A677G) that results in enhanced EZH2 activity leading to increased methylation of histone H3 Lys27. Increased trimethylation of histone H3 Lys27 is believed to be implicated in tumorgenesis and poor clinical prognosis in lymphomas (McCabe et al., (2012) Nature 492:108-112).
Inhibition of PRC2-mediated histone H3 methylation by compounds of Formula (I) was measured by ELISA using a Tri-Methyl Histone H3 (Lys 27) Sandwich ELISA Kit (Cell Signaling Tech #7866C) in accordance with the manufacturer's instructions. Briefly, Pfeiffer cells were cultured in RPMI medium supplemented with 10% fetal bovine serum and 1% penicillin and 1% streptomycin in 96 well culture plates at 37° C. to a density of 8000 cells/90 μl/well and the cells were harvested. A series of 3-fold serial dilutions of each test compound of Formula (I) were prepared in RPMI medium and added to the cells at final concentrations ranging from […] to 0.15 nM. The plates were incubated at 37° C. for 96 hours.
After incubation, the cells were pelleted by centrifugation in a pre-cooled 4° C. rotor at 1,100 rpm for 10 min and the supernatant was removed by aspiration. The cell pellet was resuspended in 55 μl of Lysis Buffer (0.4M HCl) and incubated on ice with periodic shaking for 30 minutes. The lysed cells were subjected to centrifugation at 4,200 rpm for 10 min at 4° C. and the supernatant containing acid-soluble proteins was collected and the remainder discarded. The acid-soluble proteins were brought to a neutral pH by the addition of 20 μl of Neutralization Buffer (1 M Sodium phosphate, dibasic (pH 12.5), 2.5 mM DTT and 1 mM PMSF) and the neutralized lysates were analyzed by ELISA.
A 65 μl aliquot of each cell lysate was added to a well of a microwell strip, the microwells were sealed using tape and incubated either at 37° C. for two hours or at 4° C. overnight. After incubation, the tape was removed at the microwells were washed four times using 200 μl of 1× Wash Buffer. To each washed microwell, a 100 μl aliquot of an anti-trimethyl histone H3 Lys27 Detection Antibody solution was added and the microwells were incubated at 37° C. for one hour. The Detection Antibody solution was removed by aspiration and the wells were washed four times each using 200 μl of 1× Wash Buffer.
A 100 μl aliquot of an HRP-linked secondary antibody was added to each well, the wells were sealed with tape and incubated at 37° C. for 30 min. The HRP-linked secondary antibody solution was removed by aspiration and the wells were washed four times using 200 μl of 1× Wash Buffer. A 100 μl aliquot of a TMB substrate was added to each well, the wells were sealed with tape and incubated at 37° C. for 10 min or 25° C. for 30 min. The reaction was stopped by the addition of 100 μl aliquot of a STOP solution and the plate was shaken briefly. The degree of histone H3 trimethylation was determined using a spectrophotometric readout by measuring the absorbance at 450 nm and then calculating the amount of trimethylated histone H3. A=≤100 nM; B=>100 nM−≤500 nM; C=>500 nM and N.D.=not determined.

[2] = system: Karpas 422 cells (EZH2 Y641N); test: Karpas 422 cell viability (Cell Titre Glo); assay type: cell-based; conditions: Homo sapiens, CTG viability, Day 4, Day 7 or Day 11 (time point not given), read-out: IC50 (nM), Inhibiting Proliferation of Cells Expressing an Activating Mutant Form of EZH2
Procedure: Karpas 422 cell line is a human B cell non-Hodgkin's lymphoma cell line established from a patient having DLBCL. This EZH2 heterozygotic cell line expresses a mutant form of EZH2 enzyme (Y641N) that increases histone H3 methylation and this mutation has been implicated in the tumorgenesis of lymphomas, such as DLBCL.
Karpas 422 cells (PHE cat no., 06101702) were cultured in RPMI medium supplemented with 20% fetal bovine serum and 1% penicillin/1% streptomycin and plated at a density of 1000 cells/90 μl/well in 96 well white assay plates. A dose response curve for compounds of the present invention was determined by adding a 10 μl aliquot of stock solutions of varying concentrations of compounds to the same medium in each well, over a concentration range of 10 μM using 3-fold dilutions to a final concentration of 1.5 nM. The plates were incubated at 37° C. for predetermined time periods, Day 4, Day 7, or Day 11, and the viability of the cells was measured using a CTG assay kit (Cell Titre Glo; Promega cat. no G7573) on Day 4 and Day 7 in accordance with the manufacturer's instructions.
For the viability assay for the Day 11 plates, the plates were subjected to centrifugation at 1100 rpm for five minutes on Day 7 and the supernatant was removed by aspiration. The cells were resuspended in 90 μl aliquot of the appropriate growth medium lacking the compound followed by addition of 10 μl of a 10× stock of the same compound at the same concentration. The viability of the Day 11 cells was measured using the CTG assay kit described above in accordance with the manufacturer's instructions. The IC50 values for each compound at each predetermined time point were calculated using Graph pad PRISM software and the results are shown in Table 8. A=≤250 nM; B=[…]−≤500 nM; C=>500 nM and N.D.=not determined.

[3] = biological target: purified human, His-tagged PRC2 complex (Homo sapiens (Human), UniProt O75530); test: Hot Spot HMT assay, inhibition of PRC2 enzymatic activity; assay type: biochemical; conditions: 10 nM PRC2 complex, 0.05 mg/ml core histone H3, 1 μM 3H-SAM, 1 hr at 30° C.; read-out: IC50, Inhibition of PRC2-mediated Enzymatic Activity
Chain of purified human, His-tagged PRC2 complex (Q15910 whole entry): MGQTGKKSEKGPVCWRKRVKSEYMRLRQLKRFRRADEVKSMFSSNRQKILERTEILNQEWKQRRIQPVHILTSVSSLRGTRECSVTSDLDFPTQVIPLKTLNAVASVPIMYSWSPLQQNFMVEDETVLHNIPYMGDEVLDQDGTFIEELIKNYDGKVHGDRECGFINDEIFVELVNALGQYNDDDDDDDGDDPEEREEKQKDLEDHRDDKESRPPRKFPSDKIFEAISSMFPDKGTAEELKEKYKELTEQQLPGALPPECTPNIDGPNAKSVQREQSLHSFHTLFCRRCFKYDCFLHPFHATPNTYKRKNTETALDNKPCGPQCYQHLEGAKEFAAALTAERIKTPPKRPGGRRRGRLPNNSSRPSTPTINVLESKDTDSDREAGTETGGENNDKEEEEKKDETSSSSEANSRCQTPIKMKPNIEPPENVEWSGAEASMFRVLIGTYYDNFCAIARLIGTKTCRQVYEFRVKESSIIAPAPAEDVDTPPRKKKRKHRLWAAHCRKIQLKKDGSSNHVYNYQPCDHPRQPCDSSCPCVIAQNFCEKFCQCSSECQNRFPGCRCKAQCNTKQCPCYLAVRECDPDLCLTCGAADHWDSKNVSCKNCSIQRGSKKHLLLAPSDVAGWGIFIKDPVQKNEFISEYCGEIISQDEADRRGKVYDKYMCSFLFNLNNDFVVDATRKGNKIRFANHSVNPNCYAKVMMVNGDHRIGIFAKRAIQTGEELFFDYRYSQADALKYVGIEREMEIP
Chain of purified human, His-tagged PRC2 complex (O75530 whole entry): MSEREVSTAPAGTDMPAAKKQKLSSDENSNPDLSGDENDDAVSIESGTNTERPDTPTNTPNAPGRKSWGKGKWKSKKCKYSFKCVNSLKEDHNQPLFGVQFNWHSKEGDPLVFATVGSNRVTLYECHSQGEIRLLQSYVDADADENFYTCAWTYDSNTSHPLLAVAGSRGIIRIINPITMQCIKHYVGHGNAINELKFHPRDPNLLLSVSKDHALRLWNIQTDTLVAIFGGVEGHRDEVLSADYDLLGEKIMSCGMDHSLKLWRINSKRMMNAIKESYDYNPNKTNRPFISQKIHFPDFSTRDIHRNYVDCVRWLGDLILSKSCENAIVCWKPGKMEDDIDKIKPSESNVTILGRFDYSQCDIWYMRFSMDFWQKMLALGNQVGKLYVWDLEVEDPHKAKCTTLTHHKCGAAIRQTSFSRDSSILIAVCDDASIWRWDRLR
Chain of purified human, His-tagged PRC2 complex (Q15022 whole entry partner): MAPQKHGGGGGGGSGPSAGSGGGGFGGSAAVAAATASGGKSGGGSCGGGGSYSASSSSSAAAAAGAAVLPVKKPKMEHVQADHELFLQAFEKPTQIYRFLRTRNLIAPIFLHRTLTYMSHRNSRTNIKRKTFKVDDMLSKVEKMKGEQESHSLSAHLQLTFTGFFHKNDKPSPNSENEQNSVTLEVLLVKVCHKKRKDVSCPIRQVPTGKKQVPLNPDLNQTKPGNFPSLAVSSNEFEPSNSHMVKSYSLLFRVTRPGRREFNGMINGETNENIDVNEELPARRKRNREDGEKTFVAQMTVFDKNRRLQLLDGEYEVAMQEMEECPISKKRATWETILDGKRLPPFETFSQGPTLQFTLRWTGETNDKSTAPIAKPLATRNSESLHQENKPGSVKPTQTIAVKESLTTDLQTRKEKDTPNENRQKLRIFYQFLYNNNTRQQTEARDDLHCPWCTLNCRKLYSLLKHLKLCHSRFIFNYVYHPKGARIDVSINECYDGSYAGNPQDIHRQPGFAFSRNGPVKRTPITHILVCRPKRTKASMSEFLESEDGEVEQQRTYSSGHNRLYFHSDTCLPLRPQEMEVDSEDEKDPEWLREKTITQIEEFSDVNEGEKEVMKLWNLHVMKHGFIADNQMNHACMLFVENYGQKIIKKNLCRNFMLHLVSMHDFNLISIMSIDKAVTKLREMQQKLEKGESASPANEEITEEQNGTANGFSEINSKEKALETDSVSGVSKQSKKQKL
Chain of purified human, His-tagged PRC2 complex (Q6ZN18 whole entry partner): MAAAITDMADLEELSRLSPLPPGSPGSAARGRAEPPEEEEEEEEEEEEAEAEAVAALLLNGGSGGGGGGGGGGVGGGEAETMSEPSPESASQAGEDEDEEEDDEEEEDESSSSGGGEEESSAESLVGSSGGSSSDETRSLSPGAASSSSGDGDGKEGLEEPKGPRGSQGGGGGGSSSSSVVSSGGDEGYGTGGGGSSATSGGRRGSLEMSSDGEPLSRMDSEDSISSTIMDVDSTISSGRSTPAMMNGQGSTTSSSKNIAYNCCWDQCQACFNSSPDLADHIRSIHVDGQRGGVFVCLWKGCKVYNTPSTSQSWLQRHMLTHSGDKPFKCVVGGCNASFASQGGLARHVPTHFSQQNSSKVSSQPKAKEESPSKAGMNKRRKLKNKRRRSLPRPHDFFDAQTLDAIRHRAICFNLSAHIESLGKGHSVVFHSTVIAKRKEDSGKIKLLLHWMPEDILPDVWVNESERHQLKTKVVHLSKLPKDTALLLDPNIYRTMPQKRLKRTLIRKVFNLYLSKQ
Chain of purified human, His-tagged PRC2 complex (Q09028 whole entry partner): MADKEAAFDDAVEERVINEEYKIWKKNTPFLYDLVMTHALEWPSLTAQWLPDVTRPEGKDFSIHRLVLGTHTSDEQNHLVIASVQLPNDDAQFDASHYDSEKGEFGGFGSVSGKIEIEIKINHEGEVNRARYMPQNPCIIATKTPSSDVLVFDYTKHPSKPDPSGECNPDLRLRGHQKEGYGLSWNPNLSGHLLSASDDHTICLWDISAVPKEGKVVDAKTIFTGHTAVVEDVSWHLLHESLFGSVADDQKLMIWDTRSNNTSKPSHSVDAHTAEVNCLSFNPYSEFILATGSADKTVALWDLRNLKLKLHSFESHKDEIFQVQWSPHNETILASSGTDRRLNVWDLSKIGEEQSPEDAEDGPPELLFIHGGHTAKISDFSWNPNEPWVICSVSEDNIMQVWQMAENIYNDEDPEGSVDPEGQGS
Procedure: Ten-point dose-response curves for compounds of the present invention were determined using a Hot Spot HMT assay (Reaction Biology Corp; see Horiuchi et al., Assay Drug Dev Technol. (2013) 4: 227-236 doi: 10.1089/adt.2012.480). The assay uses purified human, His-tagged PRC2 complex, including N-terminal His-tagged EZH2 enzyme, N-terminal Flag-tagged embryonic ectoderm development protein (EED), N-terminal His-tagged suppressor of zeste 12 (SUZ12), N-terminal His-tagged AEBP2, and N-terminal His-tagged RbAp48. In this assay, the transfer of the tritiated methyl group from radiolabeled S-adenosyl methionine (SAM) to purified core histone protein by EZH2 is quantitated after filtration to determine the activity of the core PRC2 complex in the presence and absence of compound.
Briefly, compounds of the present invention were solubilized in DMSO and a series of 10, three-fold serial dilutions were made for each compound in 15% DMSO. The initial starting concentration for the serial dilutions of each compound was 1.0 μM. Control samples lacking compound, EZH2 enzyme or various reaction components also were prepared and processed in parallel with compound test samples. SAH (S-(5-adenosyl)-L-homocysteine) was used as a positive control for assay validation.
An aliquot of each serial dilution of test compound was added to deep 384 well plate using Acoustic Technology instrument (Echo 550, LabCyte) containing reaction buffer (50 mM Tris-HCl (pH 8)), 0.01% Brij35, 1 mM EDTA, 1 mM DTT, 1 mM PMSF and 1% DMSO), 10 nM purified PRC2 complex and 0.05 mg/ml core histone H3 in a 5 μl volume. The reaction was mixed gently and then pre-incubated for 20 min at 30° C. The enzymatic reaction was initiated by adding 1 μM S-Adenosyl-L-[methyl-^3H]methionine and incubated for 1 hr at 30° C. After 1 hr, the reaction product was detected using a filter binding method and the amount of tritiated H3 core histone was quantitated using a scintillation counter. The IC50 value for each compound was determined from each 10-point dose-response curve using GraphPad Prism software and the results for compounds of present invention, including compounds of Formula (I) and Formula (II) are shown in Table 6. Key: A=<100 nM; B=>100 nM−<250 nM; and C=>250 nM.

Row | SMILES | IC50 [1] [nM] | IC50 [2] [nM] | IC50 [3] [µM]
1 | Cc1cc(-c2cnc(NCc3c(F)ccc4c3CCO4)c3cncnc23)n(C)n1 [Example 22, 8-(1,3-dimethyl-1H-pyrazol-5-yl)-N-((5-fluoro-2,3-dihydrobenzofuran-4-yl)methyl)pyrido[4,3-d]pyrimidin-5-amine] | ≤ 100 | ≤ 250 | < 0.1
2 | COc1nccc2c(NCc3c(F)ccc4c3CCO4)ncc(-c3cc(C)nn3C)c12 [Example 54, 4-(1,3-dimethyl-1H-pyrazol-5-yl)-N-((5-fluoro-2,3-dihydrobenzofuran-4-yl)methyl)-5-methoxy-2,6-naphthyridin-1-amine] | > 500 | 250 to 500 | > 0.25
3 | COc1ncnc2c(NCc3c(F)ccc4c3CCO4)ncc(-c3cc(C)nn3C)c12 [Example 57, 5-(1,3-dimethyl-1H-pyrazol-5-yl)-N-((5-fluoro-2,3-dihydrobenzofuran-4-yl)methyl)-4-methoxypyrido[3,4-d]pyrimidin-8-amine] | > 500 | > 500 | > 0.25
4 | NS(=O)(=O)c1ccc(-c2cnc(NCc3c(F)ccc4c3CCO4)c3cnncc23)cc1 [Example 1] | ≤ 100 | ≤ 250 | < 0.1
5 | CNCc1ccc(-c2cnc(NCc3c(F)ccc4c3CCO4)c3cnncc23)cc1 [Example 21, N-((5-fluoro-2,3-dihydrobenzofuran-4-yl)methyl)-8-(4-((methylamino)methyl)phenyl)pyrido[3,4-d]pyridazin-5-amine] | 100 to 500 | ≤ 250 | 0.1 to 0.25
6 | CNCc1ccc(-c2cnc(NCc3c(F)ccc4c3CCO4)c3cncnc23)c(C)c1 [Example 26, N-((5-fluoro-2,3-dihydrobenzofuran-4-yl)methyl)-8-(2-methyl-4-((methylamino)methyl)phenyl)pyrido[4,3-d]pyrimidin-5-amine] | ≤ 100 | ≤ 250 | < 0.1
7 | Cc1cc(-c2cnc(NCc3c(F)ccc4c3CCO4)c3cnncc23)ccn1 [Example 12] | ≤ 100 | ≤ 250 | < 0.1
8 | Cc1cc(-c2cnc(NCc3c(F)ccc4c3CCO4)c3cnc(N)cc23)n(C)n1 [Example 50, 4-(1,3-dimethyl-1H-pyrazol-5-yl)-N^1-((5-fluoro-2,3-dihydrobenzofuran-4-yl)methyl)-2,7-naphthyridine-1,6-diamine] | > 500 | > 500 | > 0.25
9 | Cc1cc(CN(C)C)ccc1-c1cnc(NCc2c(F)ccc3c2CCO3)c2cnccc12 [Example 30] | > 500 | > 500 | > 0.25
10 | Cc1cc(-c2cnc(NCc3c(F)ccc4c3CCO4)c3cnccc23)n(C)n1 [Example 29, 4-(1,3-dimethyl-1H-pyrazol-5-yl)-N-((5-fluoro-2,3-dihydrobenzofuran-4-yl)methyl)-2,7-naphthyridin-1-amine] | 100 to 500 | 250 to 500 | < 0.1
11 | Cc1cc(-c2cnc(NCc3c(F)ccc4c3CCO4)c3cnncc23)n(C)n1 [Example 13] | ≤ 100 | ≤ 250 | < 0.1
12 | Cc1cc(-c2cnc(NCc3c(F)ccc4c3CCO4)c3c[nH]c(=O)cc23)n(C)n1 [Example 35, 5-(1,3-dimethyl-1H-pyrazol-5-yl)-8-(((5-fluoro-2,3-dihydrobenzofuran-4-yl)methyl)amino)-2,7-naphthyridin-3(2H)-one] | ≤ 100 | ≤ 250 | < 0.1
13 | CN(C)Cc1ccc(-c2cnc(NCc3c(F)ccc4c3CCO4)c3cnncc23)cc1F [Example 14] | ≤ 100 | ≤ 250 | < 0.1
14 | CN1CCc2cc(-c3cnc(NCc4c(F)ccc5c4CCO5)c4cnncc34)ccc2C1 [Example 17, N-((5-fluoro-2,3-dihydrobenzofuran-4-yl)methyl)-8-(2-methyl-1,2,3,4-tetrahydroisoquinolin-6-yl)pyrido[3,4-d]pyridazin-5-amine] | ≤ 100 | ≤ 250 | < 0.1
15 | Cn1nncc1-c1cnc(NCc2c(F)ccc3c2CCO3)c2c[nH]c(=O)cc12 [Example 39] | > 500 | > 500 | > 0.25
16 | CN(C)Cc1ccc(-c2cnc(NCc3c(F)ccc4c3CCO4)c3cncnc23)cc1 [Example 23] | 100 to 500 | ≤ 250 | < 0.1
17 | Fc1ccc2c(c1CNc1ncc(-c3ccc(CN4CCCC4)cc3)c3cnncc13)CCO2 [Example 2] | ≤ 100 | ≤ 250 | < 0.1
18 | CCOc1cc2c(-c3cc(C)nn3C)cnc(NCc3c(F)ccc4c3CCO4)c2cn1 [Example 42, 4-(1,3-dimethyl-1H-pyrazol-5-yl)-6-ethoxy-N-((5-fluoro-2,3-dihydrobenzofuran-4-yl)methyl)-2,7-naphthyridin-1-amine] | – | – | 0.1 to 0.25
